The text below walks through data of patent US20170333391A1, “METHOD FOR DELAYING THE ONSET OF PULMONARY FIBROSIS OR TREATING PULMONARY FIBROSIS” (EVERFRONT BIOTECH INC., priority 2016, published 2017).

Molecules are shown by their SMILES.

In experiment [1] the test system is C57B/L6 mice injected with Bleomycin sulfate (inducer of pulmonary fibrosis). As to the kind of experiment: Pulmonary fibrosis score (Ashcroft, 0 to 8) in Bleomycin sulfate mice. It counts as in vivo. Conditions: compared to oil group. Here is the method:
24 C57B/L6 mice (age: four weeks) were separated into four groups (6 mice in each group). […]
After completing the measurement of the pulmonary function in Example 6, the mice were sacrificed. […] One of the two groups was preserved at −20° C. for the follow-up experiment, and the other group was analyzed by hematoxylin-sosin stain (H&E stain). […]

The test system of another experiment is BMP-7 protein. Nature of the experiment: BMP-7 protein expression in TGF-β1-induced NHLF, western blotting (Example 4). Format: cell-based, human. The note with it: uninduced control = 1, TGF-β1-only group A = 0.19. How it is done:
(§1) Normal Human lung fibroblasts (NHLF) were seeded into 6 cm culture dishes at a density of 2×10^5 cells/dish, comprising a control group and five experimental groups (6 dishes in total). The cells were cultured until the next day, and then the mediums were removed. Each group was respectively treated under the following conditions to conduct follow-up experiments: • (1) Control group: cells were cultured in a FGM-2 medium containing 1% serum for 36 hours; • (2) Group A: cells were cultured in a FGM-2 medium containing 1% serum and TGF-β1 (5 ng/ml) for 36 hours; • (3) Group B: cells were firstly cultured in a FGM-2 medium containing 1% serum and TGF-β1 (5 ng/ml) for 12 hours, and then compound (1) was added into the medium to provide a final concentration of 15 μg/ml; thereafter, the cells were cultured for another 24 hours; • (4) Group C: cells were firstly cultured in a FGM-2 medium containing 1% serum and TGF-β1 (5 ng/ml) for 12 hours, and then compound (1) was added into the medium to provide a final concentration of 30 μg/ml; thereafter, the cells were cultured for another 24 hours; • (5) Group D: cells were firstly cultured in a FGM-2 medium containing 1% serum and TGF-β1 (5 ng/ml) for 12 hours, and then compound (2) was added into the medium to provide a final concentration of 100 μg/ml; thereafter, the cells were cultured for another 24 hours; and • (6) Group E: cells were firstly cultured in a FGM-2 medium containing 1% serum and TGF-β1 (5 ng/ml) for 12 hours, and then compound (2) was added into the medium to provide a final concentration of 200 μg/ml; thereafter, the cells were cultured for another 24 hours.
(§2) Thereafter, the proteins in the cells of each group were extracted, and the expressions of BMP-7 protein, TGF-β protein and p-smad2/3 protein in the NHLF cells of each group were measured with western blotting. The results of the control group served as the basis for calculating the relative expression levels of the other groups.

A further experiment concerns α-SMA protein. As to the kind of experiment: α-SMA protein expression in NHLF, western blotting (3-1). It counts as cell-based, human. Here is the method: Normal Human lung fibroblasts (NHLF) were seeded into 6 cm culture dishes at a density of 2×10^5 cells/dish, comprising a control group and six experimental groups (7 dishes in total). The cells were cultured until the next day, and then the mediums were removed. Each group was respectively treated under the following conditions to conduct follow-up experiments: • (1) Control group: cells were cultured in a FGM-2 medium containing 10% serum for 36 hours; • (2) Group i: cells were cultured in a FGM-2 medium containing 1% serum for 36 hours; • (3) Group ii: cells were firstly cultured in a FGM-2 medium containing 1% serum for 12 hours, and then compound (1) was added into the medium to provide a final concentration of 15 μg/ml; thereafter, the cells were cultured for another 24 hours; • (4) Group iii: cells were firstly cultured in a FGM-2 medium containing 1% serum for 12 hours, and then compound (1) was added into the medium to provide a final concentration of 25 μg/ml; thereafter, the cells were cultured for another 24 hours; • (5) Group iv: cells were cultured in a FGM-2 medium containing 1% serum and TGF-β1 (5 ng/ml) for 36 hours; • (6) Group v: cells were firstly cultured in a FGM-2 medium containing 1% serum and TGF-β1 (5 ng/ml) for 12 hours, and then compound (1) was added into the medium to provide a final concentration of 15 μg/ml; thereafter, the cells were cultured for another 24 hours; and • (7) Group vi: cells were firstly cultured in a FGM-2 medium containing 1% serum and TGF-β1 (5 ng/ml) for 12 hours, and then compound (1) was added into the medium to provide a final concentration of 25 μg/ml; thereafter, the cells were cultured for another 24 hours.
Thereafter, the proteins in the cells of each group were extracted, and the expressions of BMP-7 protein, TGF-β protein and α-SMA protein in the NHLF cells of each group were measured with western blotting, wherein the β-actin served as the internal control. The results of the control group served as the basis for calculating the relative expression levels of the other groups.
In general terms: In western blotting, separated proteins are transferred to a membrane and probed.

The subject of a further experiment is TGF-β protein. Nature of the experiment: TGF-β protein expression in TGF-β1-induced NHLF, western blotting (Example 4). Format: cell-based, human. Conditions: uninduced control = 1, TGF-β1-only group A = 1.75. How it is done: as §1, §2
Setting [2] is: Group B: TGF-β1 5 ng/ml 12 h, then compound (1) 15 μg/ml 24 h.
Where [3] appears, read: Group C: TGF-β1 5 ng/ml 12 h, then compound (1) 30 μg/ml 24 h.

Consider `CCCC=C1OC(=O)c2ccccc21` [compound (1)], for which the pulmonary fibrosis score entry was “significantly decreased” in experiment [1] (High-dose group, compound (1) 50 mg/kg orally daily 30 days) and “significantly decreased” in experiment [1] (Low-dose group, compound (1) 10 mg/kg orally daily 30 days). Moreover, the “Relative expression level (fold) BMP-7 protein” value in the experiment on BMP-7 protein (setting [2]) came out at 0.68 fold; in the experiment on BMP-7 protein (setting [3]), 0.31 fold. Besides, the “Relative expression level (fold) α-SMA protein” value with α-SMA protein (Group ii: 1% serum 12 h, then compound (1) 15 μg/ml 24 h, no TGF-β1, 10% serum control = 1, 1% serum group i = 0.94) is 0.95 fold; in the experiment on α-SMA protein (Group iii: 1% serum 12 h, then compound (1) 25 μg/ml 24 h, no TGF-β1, 10% serum control = 1, 1% serum group i = 0.94) it was 0.89 fold; with α-SMA protein (Group v: 1% serum + TGF-β1 5 ng/ml 12 h, then compound (1) 15 μg/ml 24 h, 10% serum control = 1, TGF-β1-only group iv = 0.89), 0.72 fold; in the experiment on α-SMA protein (Group vi: 1% serum + TGF-β1 5 ng/ml 12 h, then compound (1) 25 μg/ml 24 h, 10% serum control = 1, TGF-β1-only group iv = 0.89), 0.77 fold. In addition, the “Relative expression level (fold) TGF-β protein” value in the experiment on TGF-β protein (setting [2]) amounted to 1.27 fold; in the experiment on TGF-β protein (setting [3]), 1.34 fold.
